Measured values from US20130338228A1, “METHODS FOR FA[…] RECOVERY AFTER A PERIOD OF DISUSE USING BETA-HYDROXY-BETA-METHYLBUTYRATE” (ABBOTT LABORATORIES, priority 2010, published 2013).

What was measured:
Assay type in all cases: in vivo, Fischer 344× Brown Norway rats
[1] = tested on: soleus and plantaris muscle fibers; experiment: Muscle fiber cross sectional area (CSA) by planimetry
Method: (§1) Sixty-four aged (34 months of age) Fischer 344× Brown Norway rats are randomly assigned to a hind limb suspended (HS) group or a reloaded (R) group. The rats in each test group receive either: (1) 1 ml Ca-HMB (170 mg/ml distilled water); or (2) 1 ml of distilled water by gavage feeding per day. After one week, thirty-two rats (eight rats from the HS group receiving Ca-HMB; eight rats from the R group receiving Ca-HMB; eight rats from the HS group receiving water; and eight rats from the R group receiving water) are designated as part of the control groups (HS Control Group (16 rats) or R Control Group (16 rats)). The control groups maintain normal mobility throughout the test period, and are allowed to move freely around their cages. Data is collected from the HS Control Group after 14 days from initiation of the study prior to and following sacrifice. Data is collected from the R Control Group after 28 days from initiation of the study prior to and following sacrifice.
(§2) The remaining thirty-two rats (16 rats in HS Group and 16 rats in R Group) continue to receive either Ca-HMB or water and are subjected to hind limb suspension for 14 days. For the hind limb suspension, tape is applied along the proximal one-third of the tail and then placed through a wire harness that is attached to a fishlike swivel at the top of a specially designed hind limb suspension cage. The suspension allowed the rats 360° of movement around the cage. Sterile gauze is wrapped around the tape and is subsequently covered with a thermoplastic material. […] The suspension height is monitored and adjusted to prevent contact between the hind limb and any supportive surface of the cage. […] The forelimbs maintain contact with a grid floor, which allows the animals to move, groom themselves, and obtain food and water freely.
(§3) After 14 days of hind limb suspension, the hind limbs are released. The R Group is further allowed normal cage ambulation for an additional 14 days and then data is collected prior to and following sacrifice.
Muscle fiber cross sectional area (CSA) is determined by planimetry from 750-1200 fibers that are obtained from four non-overlapping regions of each tissue cross-section is stained for lamina. Fiber CSA is calculated by the Image J software.

[2] = tested on: Bax; experiment: Western immunoblot of Bax in hind limb muscles
Method: (§4) Sixty-four aged (34 months of age) Fischer 344× Brown Norway rats are randomly assigned to a hind limb suspended (HS) group or a reloaded (R) group. The rats in each test group receive either: (1) 1 ml Ca-HMB (170 mg/ml distilled water); or (2) 1 ml of distilled water by gavage feeding per day. After one week, thirty-two rats (eight rats from the HS group receiving Ca-HMB; eight rats from the R group receiving Ca-HMB; eight rats from the HS group receiving water; and eight rats from the R group receiving water) are designated as part of the control groups (HS Control Group (16 rats) or R Control Group (16 rats)). […]
(§5) The remaining thirty-two rats (16 rats in HS Group and 16 rats in R Group) continue to receive either Ca-HMB or water and are subjected to hind limb suspension for 14 days. […] The suspension height is monitored and adjusted to prevent contact between the hind limb and any supportive surface of the cage. […]
(§6) Approximately seventy-five […] of muscle is homogenized in ice-cold RIPA buffer (1% Triton x-100, 150 mM NaCl, 5 mM EDTA, 10 mM Tris; pH 7.4), containing protease inhibitors (P8340, Sigma-Aldrich, St. Louis, Mo.), and phosphatase inhibitors (P2850; P5726, Sigma-Aldrich). The muscle homogenates are centrifuged at 1000×g for 5 minutes at 4° C., and the protein content of the supernatant is measured (500-0116; BioRad, Hercules, Calif.). […]

[3] = tested on: Bcl-2; experiment: Western immunoblot of Bcl-2 in hind limb muscles; conditions: plantaris and soleus after either hind limb suspension or reloading (both conditions increase Bcl-2 by about 100%)
Method: as §4, §5, §6

[4] = tested on: satellite cells/muscle precursor cells; experiment: Activation of satellite cells by BrdU labeling during reloading
Method: as §4, §5
Activated, proliferated satellite cells/muscle precursor cells were identified by immunofluorescence staining on BrdU and laminin as described previously (Siu 2005). […] The sections were finally stained with 4′,6-diamidino-2-phenylindole (DAPI) and examined under a fluorescence microscope with excitation wavelengths of 330-380 nm for DAPI blue fluorescence, 485-585 nm for Cy3 red fluorescence, and 450-490 nm for fluorescein green fluorescence. […]

[5] = tested on: cleaved caspase-9; experiment: Western immunoblot of cleaved caspase-9 in hind limb muscles; conditions: plantaris and soleus muscles after both hind limb suspension and reloading, vs water-treated
Method: as §4, §5, §6

[6] = tested on: plantar flexor muscle group; experiment: Maximal isometric force measurement after hind limb suspension and reloading
Method: as §1
(§7) The remaining thirty-two rats (16 rats in HS Group and 16 rats in R Group) continue to receive either Ca-HMB or water and are subjected to hind limb suspension for 14 days. For the hind limb suspension, tape is applied along the proximal one-third of the tail and then placed through a wire harness that is attached to a fishlike swivel at the top of a specially designed hind limb suspension cage. The suspension allowed the rats 360° of movement around the cage. […] The suspension height is monitored and adjusted to prevent contact between the hind limb and any supportive surface of the cage. […]
Force measurements: All force measurements are made while the animals are anesthetized with 98% oxygen and 2% isoflurane gas. […] The maximal isometric force of the plantar flexor muscle group is evaluated by stimulating the tibial nerve using supramaximal square wave pulses that are 4 V, 100 Hz for a duration of 3 seconds using a SD9 stimulator (Grass Medical Instruments, Quincy, Mass.). Maximal force is determined using Labview based software. […]

[7] = tested on: soleus and plantaris muscles; experiment: Muscle wet weight after hind limb suspension and reloading
Method: as §1, §2, §3
(§8) Each animal is weighed at the beginning of the experiment, following 14 days of hind limb suspension and after 14 days of reloading. With the animals deeply anesthetized, the soleus and the plantaris muscles are removed from both limbs, then blotted, and weighed. Animals are euthanized following this procedure. A block obtained from the mid-belly of the muscle is embedded in optimal cutting temperature (OCT) compound (Tissue-Tek; Andwin Scientific, Addison, Ill.), snap frozen in liquid nitrogen-cooled isopentane, and stored at −80° C. The remainder of the muscle is snap frozen in liquid nitrogen and stored at −80° C. until needed for subsequent analyses.

[8] = Body weight of aged rats after hind limb suspension and reloading
Method: as §1, §2, §3, §8

[9] = tested on: cleaved caspase-3; experiment: Western immunoblot of cleaved caspase-3 in hind limb muscles
Method: as §4, §5, §6

[10] = tested on: TUNEL positive myonuclei in plantaris and soleus muscles; experiment: Apoptotic myonuclei identified by TUNEL labeling (apoptotic index)
Method: as §1
as §7, with “cage.” for “cage. The suspension allowed the rats 360° of movement around the cage.”
10-μm-thick frozen cross sections from soleus and plantaris muscles are mounted on charged microscope slides (Fisher Scientific, Pittsburgh, Pa.). […] The number of TUNEL- and DAPI-positive nuclei that are immediately adjacent to, or beneath, the basal lamina is counted. Data is expressed as an apoptotic index, which is calculated by counting the number of TUNEL-positive nuclei divided by the total number of nuclei (i.e., DAPI-positive nuclei). The apoptotic index is determined from ˜1200 fibers, which are obtained from four non-overlapping regions of each tissue cross section.

[11] = plantaris and soleus muscles after both hind limb suspension and reloading, vs water-treated
[12] = HS induced, stated for both HMB and vehicle-treated animals, P<0.001

CC(C)(O)CC(=O)O [HMB, beta-hydroxy-beta-methylbutyrate]
HS-induced decrease in fiber CSA, plantaris ([1]; after HS, p<0.05 vs vehicle): 26.4% | HS-induced decrease in fiber CSA, soleus ([1]; after HS, p<0.05 vs vehicle): 32.5% | frequency of fibers<1500 μm^2 ([1]; plantaris and soleus, recovered for 14 days following HS, Chi-squared analyses): significantly greater in the plantaris and soleus muscles of vehicle-treated animals as compared to HMB-treated animals | effect on fiber CSA after reloading as compared to HS ([1]; plantaris or soleus muscles, after 14 days of reloading): did not further improve | Bax protein abundance in control muscles ([2]; control muscles of ambulatory animals (HS Con and R Con), FIG. 7B): reduces the protein abundance | Bax protein abundance [2, 11]: suppresses the protein abundance | Bcl-2 protein, difference between HMB and water-treated muscles [3]: may not be a significant difference | number of BrdU positive nuclei relative to vehicle-treated rats ([4]; during recovery from muscle disuse): almost twice the number | number of BrdU-positive nuclei to total nuclei ([4]; soleus, 14 day recovery period, mean+/−SE, p=0.001 vs control): 8.1+/−2% | cleaved caspase-9 protein abundance [5]: suppresses the protein abundance | reduction of maximal in vivo plantarflexor isometric force by hind limb suspension ([6]; after 14 days of hind limb suspension): 23.7% | loss in maximal isometric plantarflexor force compared to isometric force in control animals ([6]; after reloading, P<0.01 vs water-treated rats): 27.3% | effect on loss of force ([6]; hind limb suspension and reloading): attenuate the loss of force | decrease in wet weight of the plantaris muscle [7, 12]: 19% | decrease in wet weight of the soleus muscle [7, 12]: 15% | effect on extent of HS-induced atrophy (muscle wet weight) ([7]; after 14 days of HS, relative to vehicle): did not significantly reduce | effect on plantaris muscle weight ([7]; after 14 days of reloading relative to vehicle-treated animals): significantly improved | effect against HS-induced loss in the soleus muscle (wet weight) ([7]; after HS, relative to vehicle-treated animals): did not provide protective effect | body weight lowered by hind limb suspension ([8]; after 14 days of hind limb suspension, stated for both the HMB and water-treated groups): about 15% | decrease in body weight compared to the body weight of control animals ([8]; after 14 days of reloading): 4% | body weight reduced relative to the first experimental day ([8]; control rats (normal mobility) treated for five weeks): 7% | body weight reduced relative to the first experimental day ([8]; control rats (normal mobility) treated for three weeks): 1.3% | cleaved caspase-3 protein abundance in control muscles ([9]; control muscles of ambulatory animals (HS Con and R Con), FIG. 9B): reduces the protein abundance | cleaved caspase-3 protein abundance [9, 11]: suppresses the protein abundance | increase of apoptotic index by HS compared to ambulatory control animals, plantaris ([10]; after HS, p<0.05): 3.0 fold | increase of apoptotic index by HS compared to ambulatory control animals, soleus ([10]; after HS, p<0.05): 1.8 fold | effect on TUNEL labeling in myonuclei of reloaded muscles ([10]; reloaded plantaris and soleus muscles): continued to suppress TUNEL labeling
